Measured values published in patent publication US20210238162A1, “CHEMICAL COMPOUNDS” (GlaxoSmithKline Intellectual Property Development Limited, priority 2015, published 2021).
Counter-ions that a name gives are not always drawn.

Molecular target: T1, haematopoietic prostaglandin D synthase (H-PGDS) (Homo sapiens, UniProt O60760)
T1 construct: Full length human H-PGDS cDNA (Invitrogen Ultimate ORF IOH13026) was amplified by PCR; made in house; host or cells: E. coli BL21 (DE3*), vector pET22b+
T1 sequence (O60760 whole entry): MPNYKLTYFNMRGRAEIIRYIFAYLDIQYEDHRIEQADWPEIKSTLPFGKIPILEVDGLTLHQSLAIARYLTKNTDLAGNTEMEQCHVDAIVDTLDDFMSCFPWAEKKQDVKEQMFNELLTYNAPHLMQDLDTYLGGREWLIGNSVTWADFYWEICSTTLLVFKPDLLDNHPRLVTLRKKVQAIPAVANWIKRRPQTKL
Experiment: H-PGDS RapidFire High Throughput Mass Spectrometry Assay
Type: biochemical
Settings: H-PGDS RapidFire MS assay, mean pIC50; read-out: Potency Range (mean pIC50) (converted)
Method in brief: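 PGH2 (~10 μM burst) generated in situ from arachidonic acid by FLAG-tagged human COX-2 (Sf9-expressed), then converted to PGD2 by full-length human His-tagged H-PGDS from E. coli. PGD2 and PGF2α (substrate surrogate) quantified by RapidFire SPE-triple quadrupole MS; percent conversion calculated.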

Structure (SMILES) | IC50 [nM]
O=C(N[C@@H]1CC[C@@H](NCC(F)(F)F)C1)c1cnc2cc(OC(F)F)c(F)cc2c1 [Example 64, 7-(difluoromethoxy)-6-fluoro-N-((1R,3R)-3-((2,2,2-trifluoroethyl)amino)cyclopentyl)quinoline-3-carboxamide] | 10 to 79.4
CC(C)(O)[C@H]1CC[C@H](NC(=O)c2cnc3cc(OC(F)(F)F)c(Cl)cc3c2)CC1 [Example 215B, 6-Chloro-N-((trans)-4-(2-hydroxypropan-2-yl)cyclohexyl)-7-(trifluoromethoxy)quinoline-3-carboxamide] | < 10
CC(C)(O)[C@H]1CC[C@H](NC(=O)c2cnc3cc(C4CC4)ccc3c2)CC1 [Example 192, 7-Cyclopropyl-N-(trans-4-(2-hydroxypropan-2-yl)cyclohexyl)quinoline-3-carboxamide] | < 10
C[C@@H](N[C@H]1CC[C@H](NC(=O)c2cnc3cc(OC(F)F)c(Br)cc3c2)CC1)C(F)F [Example 158, 6-Bromo-7-(difluoromethoxy)-N-(trans-4-(((R)-1,1-difluoropropan-2-yl)amino)cyclohexyl)quinoline-3-carboxamide] | < 10
CC(C)(O)[C@H]1CC[C@H](NC(=O)c2cnc3cc(SC(F)F)c(F)cc3c2)CC1 [Example 184, 7-((Difluoromethyl)thio)-6-fluoro-N-(trans-4-(2-hydroxypropan-2-yl)cyclohexyl)quinoline-3-carboxamide] | 10 to 79.4
O=C(N[C@H]1CCNC1=O)c1cnc2cc(C3CCC3)c(Cl)cc2c1 [Example 181, (S)-6-Chloro-7-cyclobutyl-N-(2-oxopyrrolidin-3-yl)quinoline-3-carboxamide] | < 10
CC(C)(N[C@H]1CC[C@H](NC(=O)c2cnc3cc(OC(F)F)c(F)cc3c2)CC1)C(F)(F)F [Example 66, 7-(Difluoromethoxy)-6-fluoro-N-(trans-4-((1,1-trifluoro-2-methylpropan-2-yl)amino)cyclohexyl)quinoline-3-carboxamide] | < 10
NS(=O)(=O)O[C@H]1CC[C@H](NC(=O)c2cnc3cc(OC(F)F)c(Cl)cc3c2)CC1 [Example 141, trans-4-(6-Chloro-7-(difluoromethoxy)quinoline-3-carboxamido)cyclohexyl sulfamate] | < 10
COc1ccc2cc(C(=O)N[C@H]3CC[C@H](C(C)(C)O)CC3)cnc2c1F [Example 202, 8-Fluoro-N-(trans-4-(2-hydroxypropan-2-yl)cyclohexyl)-7-methoxyquinoline-3-carboxamide] | 10 to 79.4
CC(C)(O)[C@H]1CC[C@H](NC(=O)c2cnc3cc(C(F)(F)F)ccc3c2)CC1 [Example 190, N-(trans-4-(2-Hydroxypropan-2-yl)cyclohexyl)-7-(trifluoromethyl)quinoline-3-carboxamide] | 100 to 1000
O=C(NC1CCc2ccccc2NC1=O)c1cnc2cc(OC(F)F)c(Cl)cc2c1 (centres unmarked) [Example 237, 6-Chloro-7-(difluoromethoxy)-N-(2-oxo-2,3,4,5-tetrahydro-1H-benzo[b]azepin-3-yl)quinoline-3-carboxamide] | < 10
C[C@H]1CCN1c1cc2ncc(C(=O)N[C@H]3CC[C@H](C(C)(C)O)CC3)cc2cc1Cl [Example 187, 6-Chloro-N-(trans-4-(2-hydroxypropan-2-yl)cyclohexyl)-7-((S)-2-methylazetidin-1-yl)quinoline-3-carboxamide] | < 10
C[C@]1(O)C[C@@H](NC(=O)c2cnc3cc(OC(F)F)c(F)cc3c2)C1 [Example 93, 7-(Difluoromethoxy)-6-fluoro-N-((1s,3s)-3-hydroxy-3-methylcyclobutyl)quinoline-3-carboxamide] | 100 to 1000
CC[C@]1(O)CC[C@H](NC(=O)c2cnc3cc(OC(F)F)c(F)cc3c2)CC1 [Example 81, 7-(Difluoromethoxy)-N-((1r,4r)-4-ethyl-4-hydroxycyclohexyl)-6-fluoroquinoline-3-carboxamide] | 10 to 79.4
O=C(NC1CC2(CC(NCC(F)(F)F)C2)C1)c1cnc2cc(OC(F)F)c(F)cc2c1 (racemic) [Example 61, 7-(Difluoromethoxy)-6-fluoro-N-(6-((2,22-trifluoroethyl)amino)spiro[3.3]heptan-2-yl)quinoline-3-carboxamide] | 10 to 79.4
CC(C)(O)[C@H]1CC[C@H](NC(=O)c2cnc3cc(OC(F)F)c(Br)cc3c2)CC1 [Example 152, 6-Bromo-7-(difluoromethoxy)-N-(trans-4-(2-hydroxypropan-2-yl)cyclohexyl)quinoline-3-carboxamide] | < 10
O=C(NC1CCN(c2ccccn2)CC1)c1cnc2cc(OC(F)F)c(F)cc2c1 [Example 95, 7-(Difluoromethoxy)-6-fluoro-N-(1-(pyridin-2-yl)piperidin-4-yl)quinoline-3-carboxamide] | < 10
Cn1nnnc1N1CCC(NC(=O)c2cnc3cc4c(cc3c2)OCCO4)CC1 [Example 111, N-(1-(1-Methyl-1H-tetrazol-5-yl)piperidin-4-yl)-2,3-dihydro-[1,4]dioxino[2,3-q]quinoline-8-carboxamide] | 10 to 79.4

Structure (SMILES) | IC50 [nM]
O=C(N[C@H]1CC[C@H](N2CC(O)(C(F)(F)F)C2)CC1)c1cnc2cc(OC(F)F)c(Cl)cc2c1 [Example 134, 6-Chloro-7-(difluoromethoxy)-N-(trans-4-(3-hydroxy-3-(trifluoromethyl)azetidin-1-yl)cyclohexyl)quinoline-3-carboxamide] | < 10
O=C(N[C@H]1C[C@H](O)C1)c1cnc2cc(OC(F)F)c(Cl)cc2c1 [Example 140, 6-Chloro-7-(difluoromethoxy)-N-(trans-3-hydroxycyclobutyl)quinoline-3-carboxamide] | 10 to 79.4
O=C(N[C@H]1CCNC1=O)c1cnc2cc(C3CC3)ccc2c1 [Example 45, (S)-7-Cyclopropyl-N-(2-oxopyrrolidin-3-yl)quinoline-3-carboxamide hydrochloride] | 10 to 79.4
COc1cc2ncc(C(=O)NC3CCN(c4nnnn4C)CC3)cc2cc1Cl [Example 32, 6-Chloro-7-methoxy-N-(1-(1-methyl-1H-tetrazol-5-yl)piperidin-4-yl)quinoline-3-carboxamide] | 10 to 79.4
O=C(N[C@H]1CCCNC1=O)c1cnc2cc(C3CC3)c(Cl)cc2c1 [Example 36, (S)-6-Chloro-7-cyclopropyl-N-(2-oxopiperidin-3-yl)quinoline-3-carboxamide hydrochloride] | 10 to 79.4
CC(C)(O)C(=O)N[C@H]1C[C@H](NC(=O)c2cnc3cc(OC(F)F)c(Cl)cc3c2)C1 [Example 226, 6-Chloro-7-(difluoromethoxy)-N-(trans-3-(2-hydroxy-2-methylpropanamido)cyclobutyl)quinoline-3-carboxamide] | 10 to 79.4
O=C(NC1CCNC1=O)c1cnc2cc(OC(F)F)c(Cl)cc2c1 (stereo in doubt) [Example 117, (S)-6-Chloro-7-(difluoromethoxy)-N-(2-oxopyrrolidin-3-yl)quinoline-3-carboxamide, trifluoroacetate] | < 10
CC(C)(O)[C@H]1CC[C@H](NC(=O)c2cnc3cc(NC4CC4)c(Cl)cc3c2)CC1 [Example 213, 6-Chloro-7-(cyclopropylamino)-N-((trans)-4-(2-hydroxypropan-2-yl)cyclohexyl)quinoline-3-carboxamide] | < 10
O=C(NC1CCC(N2CCOCC2)CC1)c1cnc2cc(OC(F)F)c(F)cc2c1 (centres unmarked) [Example 68, 7-(Difluoromethoxy)-6-fluoro-N-(4-morpholinocyclohexyl)quinoline-3-carboxamide trifluoroacetic Acid Salt] | 10 to 79.4
CC1(F)CN(c2cc3ncc(C(=O)N[C@H]4CC[C@H](C(C)(C)O)CC4)cc3cc2F)C1 [Example 165, 6-Fluoro-7-(3-fluoro-3-methylazetidin-1-yl)-N-(trans-4-(2-hydroxypropan-2-yl)cyclohexyl)quinoline-3-carboxamide] | 10 to 79.4
COc1cc2ncc(C(=O)NC3CCN(c4nnnn4C)CC3)cc2cc1F [Example 46, 6-Fluoro-7-methoxy-N-(1-(1-methyl-1H-tetrazol-5-yl)piperidin-4-yl)quinoline-3-carboxamide] | 100 to 1000
Cn1nnnc1N1CCC(NC(=O)c2cnc3c4c(ccc3c2)CCO4)CC1 [Example 112, N-(1-(1-Methyl-1H-tetrazol-5-yl)piperidin-4-yl)-2,3-dihydrofuro[3,2-h]quinoline-7-carboxamide] | 10 to 79.4
CO[C@H]1CC[C@H](NC(=O)c2cnc3cc(OC(F)F)c(F)cc3c2)CC1 [Example 55, 7-(Difluoromethoxy)-6-fluoro-N-(trans-4-methoxycyclohexyl)quinoline-3-carboxamide] | 10 to 79.4
COc1ccc2cc(C(=O)Nc3nccs3)cnc2c1F [Example 47, 8-Fluoro-7-methoxy-N-(thiazol-2-yl)quinoline-3-carboxamide hydrochloride] | 10 to 79.4
CC(C)(O)[C@H]1CC[C@H](NC(=O)c2cnc3cc(Cl)ccc3c2)CC1 [Example 204, 7-Chloro-N-(trans-4-(2-hydroxypropan-2-yl)cyclohexyl)quinoline-3-carboxamide] | 100 to 1000
CC(C)(O)[C@H]1C[C@H](NC(=O)c2cnc3cc(OC(F)F)c(Cl)cc3c2)C1 [Example 118, 6-Chloro-7-(difluoromethoxy)-N-(trans-3-(2-hydroxypropan-2-yl)cyclobutyl)quinoline-3-carboxamide] | < 10
CC(C)(O)[C@H]1CC[C@H](NC(=O)c2cnc3c(F)c(OC(F)F)c(Cl)cc3c2)CC1 [Example 236, 6-Chloro-7-(difluoromethoxy)-8-fluoro-N-(trans-4-(2-hydroxypropan-2-yl)cyclohexyl)quinoline-3-carboxamide] | < 10

Same assay, conditions: in at least one experimental run; read-out: H-PGDS pIC50 value (converted)

Structure (SMILES) | IC50 [nM]
C[C@H]1CCN1c1cc2ncc(C(=O)N[C@H]3CC[C@H](C(C)(C)O)CC3)cc2cc1Cl [Example 187, 6-Chloro-N-(trans-4-(2-hydroxypropan-2-yl)cyclohexyl)-7-((S)-2-methylazetidin-1-yl)quinoline-3-carboxamide] | 6.31
O=C(N[C@H]1CCCNC1=O)c1cnc2cc(C3CC3)c(Cl)cc2c1 [Example 36, (S)-6-Chloro-7-cyclopropyl-N-(2-oxopiperidin-3-yl)quinoline-3-carboxamide hydrochloride] | 15.8
CC1(F)CN(c2cc3ncc(C(=O)N[C@H]4CC[C@H](C(C)(C)O)CC4)cc3cc2F)C1 [Example 165, 6-Fluoro-7-(3-fluoro-3-methylazetidin-1-yl)-N-(trans-4-(2-hydroxypropan-2-yl)cyclohexyl)quinoline-3-carboxamide] | 63.1
COc1cc2ncc(C(=O)NC3CCN(c4nnnn4C)CC3)cc2cc1F [Example 46, 6-Fluoro-7-methoxy-N-(1-(1-methyl-1H-tetrazol-5-yl)piperidin-4-yl)quinoline-3-carboxamide] | 126
CC(C)(O)[C@H]1CC[C@H](NC(=O)c2cnc3cc(Cl)ccc3c2)CC1 [Example 204, 7-Chloro-N-(trans-4-(2-hydroxypropan-2-yl)cyclohexyl)quinoline-3-carboxamide] | 158
CC(C)(O)[C@H]1C[C@H](NC(=O)c2cnc3cc(OC(F)F)c(Cl)cc3c2)C1 [Example 118, 6-Chloro-7-(difluoromethoxy)-N-(trans-3-(2-hydroxypropan-2-yl)cyclobutyl)quinoline-3-carboxamide] | 10
